In PubChem BioAssay (NCI):
Where “and” joins values, the source holds several entries; their conditions need not be identical. Equal values may be shown once.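 Where inhibition never reached the appropriate level, the endpoint shown equals the highest concentration tested. Otherwise, values were interpolated linearly from a five-concentration, 48-hour dose response in 96-well plates. The concentration for 50% growth inhibition is given as GI50. TGI: concentration producing complete growth inhibition.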 Peptide text beside a SMILES is read from it. * marks the point of attachment. X26 = Clc1c(Cl)c(Cl)c(O*)c(Cl)c1Cl; Boc = CC(C)(C)OC(=O)*; OBn = c1ccc(CO*)cc1; Bn = c1ccc(C*)cc1

What was measured:
Assay in all cases: inhibition of tumour cell growth, NCI panel, 48 h
[1] = tested on: CAKI-1 renal
[2] = tested on: SK-OV-3 ovarian
[3] = tested on: NCI-H23 lung
[4] = tested on: OVCAR-3 ovarian
[5] = tested on: MDA-MB-435
[6] = tested on: OVCAR-5 ovarian
[7] = tested on: COLO 205 colon
[8] = tested on: UO-31 renal
[9] = tested on: PC-3 prostate
[10] = tested on: U251 CNS

Compound `O=c1c(-c2ccccc2)c(SCCN2CCCCCC2)n(-c2ccccc2)c(=S)n1-c1ccccc1` has a TGI [1] of 99.1 µM, a TGI [2] of over 100 µM and a TGI [3] of over 100 µM. It also gave a TGI [4] of over 100 µM, a TGI [5] of over 100 µM and a TGI [6] of 44.3 µM. For the same compound, the TGI [7] was over 100 µM.
`CC(C)CC(NC(=O)C(CCC(=O)OCc1ccccc1)NC(=O)OC(C)(C)C)C(=O)NC(COCc1ccccc1)C(=O)NC(Cc1ccccc1)C(=O)Oc1c(Cl)c(Cl)c(Cl)c(Cl)c1Cl` (stereo not drawn) (Boc-E(OBn)LS(Bn)F-X26; configuration not given here) showed a TGI [1] of 48.4 µM, a TGI [8] of 50.2 µM and a TGI [9] of over 100 µM. The TGI [2] was 83.8 µM, the TGI [3] was 34.2 µM and the TGI [10] was 43.7 µM. It also gave a TGI [5] of 95.3 µM, a TGI [6] of 56.7 µM and a TGI [7] of 58.5 µM.
For `Oc1c(OCc2nnc(CCCCCCCCc3nnc(COc4ccc5ccccc5c4O)o3)o2)ccc2ccccc12`, the TGI [1] was over 100 µM, the TGI [8] was over 100 µM and the TGI [9] was over 100 µM. The TGI [2] was over 100 µM, the TGI [3] was over 100 µM and the TGI [10] was over 100 µM. For the same compound, the TGI [5] was over 100 µM, the TGI [6] was over 100 µM and the TGI [7] was over 100 µM.
`CCN1CCN(Cc2ccc(NC(=O)Nc3ccc(-n4ccc5c(NC(=O)c6ccccc6)nccc54)cc3)cc2C(F)(F)F)CC1` gave a GI50 [9] of 1.16 µM, a TGI [9] of 4.68 µM and a GI50 [2] of 1.8 µM. For the same compound, the TGI [2] was 10.5 µM, the GI50 [4] was 1.32 µM and the TGI [4] was 2.63 µM. The GI50 [7] was 0.942 µM and the TGI [7] was 2.51 µM.
For `Cc1ccc2c(c1C)CC1(Cc3c(C)ccc(C)c3C1=O)C2=O` (stereo not drawn), the TGI [1] was over 100 µM, the TGI [8] was over 100 µM and the TGI [2] was over 100 µM. For the same compound, the TGI [3] was over 100 µM, the TGI [10] was over 100 µM and the TGI [5] was over 100 µM. The TGI [6] was over 100 µM and the TGI [7] was over 100 µM.
Compound `CCCCCCCCCCCCNC(=O)CCC(NC(=O)c1ccc(N(C)Cc2cnc3nc(N)nc(N)c3n2)cc1)C(=O)NCCCCCCCCCCCC` (stereo not drawn) has a TGI [8] of over 100 µM, a TGI [9] of over 100 µM and a TGI [3] of over 100 µM. The TGI [10] was 24.7 µM, the TGI [4] was over 100 µM and the TGI [5] was over 100 µM. It also gave a TGI [6] of over 100 µM and a TGI [7] of over 100 µM.
In the case of `COc1ccc(OC)c(NC(=O)C(=O)C(C(=O)c2ccccc2F)C2OC(=O)c3ccccc32)c1` (stereo not drawn), the TGI [1] is reported as over 100 µM, the TGI [8] is reported as over 100 µM and the TGI [2] is reported as over 100 µM. It also gave a TGI [3] of over 100 µM, a TGI [10] of 49.5 µM and a TGI [6] of over 100 µM. For the same compound, the TGI [7] was over 100 µM.
In the case of `CC(C)=CCC12Cc3ccc(O)cc3C(C(C)CN1)C2C` (stereo not drawn), the TGI [8] is reported as over 100 µM, the TGI [2] is reported as over 100 µM and the TGI [3] is reported as over 100 µM. It also gave a TGI [10] of over 100 µM, a TGI [5] of over 100 µM and a TGI [6] of over 100 µM. It also gave a TGI [7] of over 100 µM.
Work on `COC(=O)C1=C(C(=O)OC)SC(=C2SC3=C(SC(=C4SCCS4)S3)S2)S1` yielded a TGI [1] of over 100 µM, a TGI [8] of over 100 µM and a TGI [9] of over 100 µM. For the same compound, the TGI [2] was over 100 µM, the TGI [3] was over 100 µM and the TGI [10] was over 100 µM. It also gave a TGI [5] of over 100 µM, a TGI [6] of over 100 µM and a TGI [7] of over 100 µM.
Compound `CC(=O)OC1CC2(O)C(CCC3(C)C(c4ccc(=O)oc4)CCC32O)C2(C)C1=CC(O)C1OC12` (stereo not drawn) has a TGI [1] of 0.0968 µM, a TGI [8] of 0.323 µM and a TGI [2] of 0.252 µM. For the same compound, the TGI [3] was 0.0618 µM, the TGI [10] was 0.281 µM and the TGI [4] was 0.0697 µM. The TGI [6] was 0.772 µM and the TGI [7] was 0.354 µM.
With `C[C@H](c1ccccc1)N1C(=O)[C@@H](OCc2ccccc2)[C@H]1[C@H](COC(=O)COCc1ccccc1)OCc1ccccc1` the TGI [8] was over 100 µM, the TGI [9] was over 100 µM and the TGI [2] was over 100 µM. The TGI [3] was over 100 µM, the TGI [10] was over 100 µM and the TGI [4] was over 100 µM. The TGI [5] was over 100 µM, the TGI [6] was over 100 µM and the TGI [7] was over 100 µM.
Compound `Cc1cnc2[nH]c(-c3cccc(F)c3)cc(=O)c2c1` has a TGI [1] of over 100 µM, a TGI [8] of over 100 µM and a TGI [2] of over 100 µM. It also gave a TGI [3] of 2.03 µM, a TGI [10] of over 100 µM and a TGI [4] of 0.0373 µM. The TGI [5] was 0.0228 µM, the TGI [6] was over 100 µM and the TGI [7] was 0.0582 µM.
`CCC(=O)Nc1ccc(NS(=O)(=O)c2ccc(Cl)cc2)cc1` showed a TGI [1] of over 100 µM, a TGI [8] of over 100 µM and a TGI [9] of over 100 µM. The TGI [2] was over 100 µM, the TGI [3] was over 100 µM and the TGI [4] was over 100 µM. It also gave a TGI [5] of over 100 µM, a TGI [6] of over 100 µM and a TGI [7] of over 100 µM.
In the case of `NCCN(CCN(C(=O)Nc1ccccc1)c1ccccc1)C(=O)Nc1ccccc1`, the TGI [8] is reported as 39.3 µM, the TGI [9] is reported as 90.3 µM and the TGI [2] is reported as 44.9 µM. For the same compound, the TGI [3] was 63 µM, the TGI [10] was over 100 µM and the TGI [6] was 45.6 µM. The TGI [7] was 67.4 µM.
Compound `CN(C)CCNc1c([N+](=O)[O-])sc2ccc(Cl)cc12` has a TGI [8] of over 100 µM, a TGI [9] of over 100 µM and a TGI [2] of over 100 µM. The TGI [3] was over 100 µM, the TGI [10] was 78.3 µM and the TGI [4] was over 100 µM. For the same compound, the TGI [5] was over 100 µM, the TGI [6] was over 100 µM and the TGI [7] was over 100 µM.
For `c1c(N2CCOCC2)ssc1=[N+]1CCOCC1`, the TGI [1] was over 100 µM, the TGI [8] was over 100 µM and the TGI [2] was over 100 µM. For the same compound, the TGI [3] was over 100 µM, the TGI [10] was over 100 µM and the TGI [6] was over 100 µM.
`COCC#C[C@@]1(O)CCCCC1CC(OC)OC` (stereo partly drawn) gave a TGI [1] of over 100 µM, a TGI [8] of over 100 µM and a TGI [9] of over 100 µM. The TGI [2] was over 100 µM, the TGI [3] was over 100 µM and the TGI [10] was over 100 µM. For the same compound, the TGI [5] was over 100 µM, the TGI [6] was over 100 µM and the TGI [7] was over 100 µM.
With `COc1ccc(C2Oc3c(OC)cc(CCCO)cc3C2CO)cc1OC` (stereo not drawn) the GI50 [8] was 38.9 µM and > 100 µM, the TGI [8] was over 100 µM and the TGI [9] was over 100 µM. For the same compound, the TGI [2] was over 100 µM, the TGI [3] was over 100 µM and the TGI [10] was over 100 µM. It also gave a TGI [4] of over 100 µM, a TGI [5] of over 100 µM and a TGI [6] of over 100 µM. It also gave a TGI [7] of over 100 µM.
